Experimental findings from patent US20230085945A1, “ORTHOGONAL SAFETY SWITCHES TO ELIMINATE GENETICALLY ENGINEERED CELLS” (The Board of Trustees of the Leland Stanford Junior …, priority 2020, published 2023) are described below.

Assay [1] relates to ACTB^OiCasp9-mPlum;NANOG^iCasp9-YFP hPSCs and differentiated liver, bone and neural progenitors. Put plainly: Killing of ACTB^OiCasp9-mPlum;NANOG^iCasp9-YFP hPSCs and differentiated derivatives by AP21 or AP20 (alamar blue). The class given is cell-based, human. The note with it: dual-transgenic line; 1 nM, 24 hours. How it is done:
FIG. 6: Rationale, design and implementation of the ACTB^OiCasP9-mPlum safety switch. A) Intended application of the dual ACTB^OiCasp9-mPlum;NANOG^iCasp9-YFP safeguard. B) Cas9 RNP/AAV6-based knock-in strategy for ACTB^iCasp9-mPlum targeting, which was performed in the NANOG^iCasp9-YFP hESC line. C) 5×10^5 ACTB^OiCasp9-mPlum; NANOG^iCasp9-YFP hESCs were treated with control media or 1-1000 nM AP21967 for 24 hours. Cell viability was analyzed using alamar blue. D) ACTB^OiCasp9-mPlum;NANOG^iCasp9-YFP and ACTB^TK-mPlum; NANOG^iCasp9-YFP hESCs (negative control), in addition to their respective differentiated derivatives, were treated for 24 hours with 1 nM of AP21967. E) 5×10^5 ACTB^OiCasp9-mPlum; NANOG^iCasp9-YFP hESCs, and their respective differentiated derivatives, were treated with control media, 1 nM of AP21967 or and 1 nM of AP20187 for 24 hours. Surviving cells were analyzed by alamar blue. F) 10^6 ACTB^OiCasp9-mPlum;NANOG^iCasp9-YFP hESCs engineered to express CAG-AkaLuciferase were treated with control media or 1 nM AP20187 for 24 hours, and then subcutaneously transplanted into the right and left dorsal flanks of NOD-SCID Il2rg^−/− mice (10^6 cells per flank). 4 weeks post-transplant, teratomas formed and AP21967 was intraperitoneally administered once at 10 mg/kg. […] Total flux (photons/sec) was measured for each animal and was averaged.
For orientation: The colour change of resazurin is a common sign of viable cells or microbes.

For assay [2], the system named is undifferentiated NANOG^iCasp9-YFP hPSCs. Nature of the assay: Clonal assay for surviving hPSC colonies after AP20187 treatment. The class given is cell-based, human. As to conditions: 1 nM AP20, 24-hour treatment; across 7 independent experiments. How it is done: FIG. 3: Implementation of the NANOG^iCasp9-YFP safety switch. A) Schema depicting how drug AP20187 induces dimerization of Caspase9 in undifferentiated NANOG^iCasp9-YFP hESCs, subsequently triggering cell death (top left). NANOG^iCasp9-YFP hESCs were treated for 24 hours with increasing concentrations of AP20187. AP20187 was withdrawn, and cultures were further grown in mTeSR1 to allow any surviving hESCs to grow; any surviving colonies were counted 1 week later (top right). Alkaline phosphatase staining of whole wells of a 12-well plate after 24-hour treatment with AP20187 (bottom). […] Bioluminescent imaging of mice occurred weekly for 5 weeks with no transplant control (NTC) animals included for relative luminescence normalization. Total flux (photons/sec) was measured for each animal and averaged. […] The percentage of surviving cells was calculated relative to untreated controls. […]
Clonal assay for surviving hPSC colonies—hPSCs were dissociated into single cells with Accutase (Thermo Fisher) and 1×10^6 cells were plated per well of a 6-well plate that was pre-coated with Matrigel. […] Subsequently, AP20187 was withdrawn altogether and hPSCs were cultured with mTeSR1 for 1 week, to allow any surviving hPSCs to regrow and to form clonal colonies, which were then scored (i.e., 1 surviving colony after AP20187 treatment of 1×10^6 hPSCs indicated survival of 1 out of 10^6 cells). […]

For the molecule `CC[C@H](C(=O)N1CCCC[C@H]1C(=O)O[C@H](CCc1ccc(OC)c(OC)c1)c1cccc(OCC(=O)NCC(CNC(=O)COc2cccc([C@@H](CCc3ccc(OC)c(OC)c3)OC(=O)[C@@H]3CCCCN3C(=O)[C@@H](CC)c3cc(OC)c(OC)c(OC)c3)c2)CN(C)C)c1)c1cc(OC)c(OC)c(OC)c1` [AP20], the “killing of undifferentiated and differentiated cells” value in assay [1] is given as “selectively kill undifferentiated hPSCs”. Also, the “depletion of undifferentiated hPSCs” value in assay [2] is listed as 1.75×10^6 fold.
